Data as given in US20170368082A1, “FORMULATIONS OF BRINCIDOFOVIR” (priority 2016, published 2017).

Assay: Tissue distribution by quantitative whole-body autoradiography (QWBA)
Format: in vivo, male Sprague Dawley and Long-Evans rats
Settings: for AUCall Ratio (PO/IV) / Cmax Ratio (PO/IV): Group 7 vs Group 4
Method: The study utilized 4 groups of male SD rats (albino), and 3 groups of male LE rats (pigmented); a total of 39 rats. All animals were obtained from Hilltop Lab Animals, Inc. (Scottdale, Pa.). […] Rats in Group 5 were administered a single 2-h IV infusion of [^14C]brincidofovir at a target dose of 2 mg/kg. […] Three dosing formulations (one for high dose IV, one for low dose IV, and one for PO dose) were prepared at QPS on the day of dosing. The IV formulation for Groups 1, 2, 3, and 4 contained a vehicle of 10 mM sodium phosphate buffer in 5% dextrose solution at pH 8.0(±0.1).
Each animal, at their respective termination time points, was euthanized for QWBA analysis immediately after blood collection. One rat per time point per Group was euthanized as listed below.
The blood samples were maintained on wet ice (approximately 4° C.) and then centrifuged to obtain plasma within 1 h of the blood collection time. Centrifuge settings were recorded in the study notebook. Duplicate aliquots of plasma (0.050 mL) were analyzed for radioactivity using direct counting by LSC, and residual plasma was stored at approximately −70° C. and was saved for possible future analysis under a separate study protocol. Residual red blood cells were discarded as radioactive waste.
The pinna, distal limbs, hair, and tail were removed from each frozen carcass and each frozen carcass was embedded in an aqueous suspension of approximately 2% (w/v) carboxymethylcellulose and frozen into a block. The blocks were stored at approximately −20° C. prior to sectioning. Each blocked carcass was mounted on the object stage of a cryomicrotome (Leica CM3600 Cryomacrocut, Nussloch, Germany and Vibratome 9800, St. Louis, Mo.) maintained at approximately −20° C. and internal standards (3), which were plasma fortified with [^14C]-glucose at one concentration (approximately 0.05 μCi/mL), were placed into the frozen blocks, prior to sectioning, and were used for section thickness quality control. A number of whole-body sections (approximately 40 μm thick) were taken in the sagittal plane at various levels of interest using a whole-body cryomicrotome set at −20° C. Sagittal sections (20-50 μm thick) of frozen carcasses were exposed to phosphor imaging plates. Regions of images in tissues were converted to concentrations using standards. All of the major tissues, organs, and biological fluids were represented.
Tissue concentration data was determined for the following tissues and/or contents: adipose (brown and white), adrenal gland, bile (in duct), blood (cardiac), bone, bone marrow, brain (cerebrum, cerebellum, medulla), cecum (and contents), large intestine (and contents), epididymis, esophagus, eye (uvea and lens), Harderian gland, heart, kidney (cortex and medulla), liver, lung, lymph node, pancreas, pituitary gland, prostate gland, salivary gland, seminal vesicles, skeletal muscle, skin (pigmented and non-pigmented), small intestine (and contents), stomach (gastric mucosa and contents), spleen, spinal cord, testis, thymus, thyroid, and urinary bladder (and contents).
The imaging plate and sections were placed in light-tight exposure cassettes, in a copper-lined lead safe, for a 4-day exposure at room temperature. […] Quantification was performed by image densitometry using MCD image analysis software (v. 7.0, Interfocus Imaging Ltd) and a standard curve constructed from the integrated response [i.e., Molecular Dynamics Counts per square millimeter (MDC/mm^2)] and the nominal concentrations of the ^14C-calibration standards. The concentrations of radioactivity were expressed as the μg equivalents of [^14C]brincidofovir per gram sample (μg equiv/g). A lower limit of quantification (LLOQ) was applied to the data (See section 6.7.4).
Tissue concentrations that fell below the LLOQ were identified as being below the quantification limit (BQL). Tissue areas that were not visualized on autoradiographic images were identified as no sample (NS) and reported as BQL.

CCCCCCCCCCCCCCCCOCCCOP(=O)(O)CO[C@H](CO)Cn1ccc(N)nc1=O [[^14C] brincidofovir]
Tissue Concentration (168 h) (Skin (non-pigmented), 2 h IV infusion 15 mg/kg, Group 4, LLOQ 0.036): 0.226 μg equiv/g
Tissue Concentration (168 h) (Skin (non-pigmented), PO 15 mg/kg, Group 7, LLOQ 0.034): BQL
AUCall (Skin (non-pigmented), PO 15 mg/kg, Group 7): 14.0275 μg equiv · h/g
AUCall Ratio (PO/IV) (Skin (pigmented), 15 mg/kg): 0.18
Cmax Ratio (PO/IV) (Skin (pigmented), 15 mg/kg): 0.15
AUCall (Skin (pigmented), 2 h IV infusion 15 mg/kg, Group 4): 95.5050 μg equiv · h/g
Tissue Concentration (168 h) (Skin (pigmented), 2 h IV infusion 15 mg/kg, Group 4, LLOQ 0.036): 0.09 μg equiv/g
Tissue Concentration (168 h) (Skin (pigmented), PO 15 mg/kg, Group 7, LLOQ 0.034): BQL
AUCall (Skin (pigmented), PO 15 mg/kg, Group 7): 17.0405 μg equiv · h/g
AUCall Ratio (PO/IV) (Small Intestine, 15 mg/kg): 8.25
Cmax Ratio (PO/IV) (Small Intestine, 15 mg/kg): 6.45
AUCall (Small Intestine, 2 h IV infusion 15 mg/kg, Group 4): 1160.650 μg equiv · h/g
Tissue Concentration (168 h) (Small Intestine, 2 h IV infusion 15 mg/kg, Group 4, LLOQ 0.036): 0.339 μg equiv/g
Tissue Concentration (168 h) (Small Intestine, PO 15 mg/kg, Group 7, LLOQ 0.034): 5.867 μg equiv/g
AUCall (Small Intestine, PO 15 mg/kg, Group 7, 15 mg/kg): 9575.18 μg equiv · h/g
AUCall Ratio (PO/IV) (Spinal Cord, 15 mg/kg): 0.02
Cmax Ratio (PO/IV) (Spinal Cord, 15 mg/kg): 0.04
AUCall (Spinal Cord, 2 h IV infusion 15 mg/kg, Group 4): 5.7830 μg equiv · h/g
Tissue Concentration (168 h) (Spinal Cord, 2 h IV infusion 15 mg/kg, Group 4, LLOQ 0.036): BQL
Tissue Concentration (168 h) (Spinal Cord, PO 15 mg/kg, Group 7, LLOQ 0.034): BQL
AUCall (Spinal Cord, PO 15 mg/kg, Group 7): 0.1110 μg equiv · h/g
AUCall Ratio (PO/IV) (Spleen, 15 mg/kg): 0.27
Cmax Ratio (PO/IV) (Spleen, 15 mg/kg): 0.18
AUCall (Spleen, 2 h IV infusion 15 mg/kg, Group 4): 642.3590 μg equiv · h/g
Tissue Concentration (168 h) (Spleen, 2 h IV infusion 15 mg/kg, Group 4, LLOQ 0.036): 0.892 μg equiv/g
Tissue Concentration (168 h) (Spleen, PO 15 mg/kg, Group 7, LLOQ 0.034): 0.274 μg equiv/g
AUCall (Spleen, PO 15 mg/kg, Group 7): 172.2208 μg equiv · h/g
AUCall Ratio (PO/IV) (Stomach (mucosa), 15 mg/kg): 1.29
Cmax Ratio (PO/IV) (Stomach (mucosa), 15 mg/kg): 4.75
AUCall (Stomach (mucosa), 2 h IV infusion 15 mg/kg, Group 4): 70.2310 μg equiv · h/g
Tissue Concentration (168 h) (Stomach (mucosa), 2 h IV infusion 15 mg/kg, Group 4, LLOQ 0.036): 0.069 μg equiv/g
Tissue Concentration (168 h) (Stomach (mucosa), PO 15 mg/kg, Group 7, LLOQ 0.034): 0.042 μg equiv/g
AUCall (Stomach (mucosa), PO 15 mg/kg, Group 7): 90.7575 μg equiv · h/g
AUCall Ratio (PO/IV) (Testis, 15 mg/kg): 0.39
Cmax Ratio (PO/IV) (Testis, 15 mg/kg): 0.17
AUCall (Testis, 2 h IV infusion 15 mg/kg, Group 4): 77.2835 μg equiv · h/g
Tissue Concentration (168 h) (Testis, 2 h IV infusion 15 mg/kg, Group 4, LLOQ 0.036): 0.098 μg equiv/g
Tissue Concentration (168 h) (Testis, PO 15 mg/kg, Group 7, LLOQ 0.034): 0.041 μg equiv/g
AUCall (Testis, PO 15 mg/kg, Group 7): 30.3920 μg equiv · h/g
AUCall Ratio (PO/IV) (Thymus, 15 mg/kg): 0.13
Cmax Ratio (PO/IV) (Thymus, 15 mg/kg): 0.11
AUCall (Thymus, 2 h IV infusion 15 mg/kg, Group 4): 92.4355 μg equiv · h/g
Tissue Concentration (168 h) (Thymus, 2 h IV infusion 15 mg/kg, Group 4, LLOQ 0.036): 0.1 μg equiv/g
Tissue Concentration (168 h) (Thymus, PO 15 mg/kg, Group 7, LLOQ 0.034): BQL
AUCall (Thymus, PO 15 mg/kg, Group 7): 12.0843 μg equiv · h/g
AUCall Ratio (PO/IV) (Thyroid, 15 mg/kg): 0.13
Cmax Ratio (PO/IV) (Thyroid, 15 mg/kg): 0.13
AUCall (Thyroid, 2 h IV infusion 15 mg/kg, Group 4): 238.0230 μg equiv · h/g
Tissue Concentration (168 h) (Thyroid, 2 h IV infusion 15 mg/kg, Group 4, LLOQ 0.036): 0.459 μg equiv/g
Tissue Concentration (168 h) (Thyroid, PO 15 mg/kg, Group 7, LLOQ 0.034): 0.038 μg equiv/g
AUCall (Thyroid, PO 15 mg/kg, Group 7): 31.3395 μg equiv · h/g
AUCall Ratio (PO/IV) (Urinary Bladder, 15 mg/kg): 0.52
Cmax Ratio (PO/IV) (Urinary Bladder, 15 mg/kg): 0.16
AUCall (Urinary Bladder, 2 h IV infusion 15 mg/kg, Group 4): 215.5480 μg equiv · h/g
Tissue Concentration (168 h) (Urinary Bladder, 2 h IV infusion 15 mg/kg, Group 4, LLOQ 0.036): BQL
Tissue Concentration (168 h) (Urinary Bladder, PO 15 mg/kg, Group 7, LLOQ 0.034): 0.076 μg equiv/g
AUCall (Urinary Bladder, PO 15 mg/kg, Group 7): 111.2445 μg equiv · h/g
